Assay results published in PubChem BioAssay (NCI).
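Assay format: 96-well plates, 48-hour exposure. Here, GI50 denotes the concentration required for 50% inhibition of growth. TGI denotes the concentration required for complete inhibition of growth.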

Legend:
Test in all cases: NCI-60 cell line screen, 48 h
[1] = system: 786-0 renal
[2] = system: EKVX NSCLC
[3] = system: MCF7 breast
[4] = system: MOLT-4 leukemia
[5] = system: NCI-H226 lung
[6] = system: NCI-H522 lung
[7] = system: OVCAR-8 ovarian
[8] = system: SK-MEL-5 melanoma
[9] = system: SN12C renal
[10] = system: SNB-75 CNS
[11] = system: U251 CNS
[12] = system: MDA-MB-231 breast

COC(=O)[C@H]1ON2O[C@@H](O[C@H]3CCCC[C@@H]3C(C)(C)c3ccccc3)C[C@@H]3CC[C@H]1[C@@]32C
TGI [1]: > 100 µM
TGI [2]: > 100 µM
TGI [3]: > 100 µM
TGI [4]: > 100 µM
TGI [5]: > 100 µM
TGI [6]: > 100 µM
TGI [7]: > 100 µM
TGI [8]: > 100 µM
TGI [9]: > 100 µM
TGI [10]: > 100 µM
TGI [11]: > 100 µM

N#C[C@](CO)(NC(=O)OCc1ccccc1)C(F)F
TGI [1]: > 100 µM
TGI [2]: > 100 µM
TGI [12]: > 100 µM
TGI [4]: > 100 µM
TGI [5]: > 100 µM
TGI [6]: > 100 µM
TGI [7]: > 100 µM
TGI [8]: > 100 µM
TGI [10]: > 100 µM
TGI [11]: > 100 µM

O=S(=O)(O)Nc1ccc(-c2nc3ccccc3s2)cc1Cl
TGI [1]: > 100 µM
TGI [2]: > 100 µM
TGI [12]: > 100 µM
TGI [5]: > 100 µM
TGI [6]: > 100 µM
TGI [7]: > 100 µM
TGI [8]: > 100 µM
TGI [9]: > 100 µM
TGI [10]: > 100 µM
TGI [11]: > 100 µM

Nc1ccccc1Sc1ccc(Cl)cc1
TGI [2]: 76.9 µM
TGI [5]: 26.2 µM
TGI [7]: > 100 µM
TGI [8]: 32 µM
TGI [9]: 56.1 µM
TGI [10]: 88.9 µM
TGI [11]: 36.2 µM

CC1CSc2nc3[nH]c(=S)[nH]c3c(=O)n2C1 (configuration not stated)
TGI [1]: > 100 µM
TGI [2]: > 100 µM
TGI [3]: > 100 µM
TGI [12]: > 100 µM
TGI [4]: > 100 µM
TGI [5]: > 100 µM
TGI [7]: > 100 µM
TGI [8]: > 100 µM
TGI [9]: > 100 µM
TGI [10]: > 100 µM
TGI [11]: > 100 µM

CCOC(=O)c1c(NC(=O)c2ccccc2)sc2c1CCC2
TGI [1]: > 100 µM
TGI [2]: > 100 µM
TGI [3]: > 100 µM
TGI [12]: > 100 µM
TGI [4]: > 100 µM
TGI [5]: > 100 µM
TGI [7]: > 100 µM
TGI [8]: > 100 µM
TGI [9]: > 100 µM
TGI [10]: > 100 µM

CC(=O)/C=C/c1c[nH]c(=O)[nH]c1=O
TGI [2]: 570 µM
TGI [3]: 516 µM
TGI [4]: 783 µM
TGI [5]: 565 µM
TGI [6]: 295 µM
TGI [7]: 873 µM
TGI [8]: 574 µM
TGI [9]: 573 µM
TGI [10]: 681 µM
TGI [11]: 503 µM

COc1ccc(/C=N/n2c(Cc3ccc(Cl)cc3)n[nH]c2=O)cc1
TGI [1]: 54.6 µM
TGI [2]: > 100 µM
TGI [3]: > 100 µM
TGI [12]: 26.6 µM
TGI [4]: > 100 µM
TGI [5]: > 100 µM
TGI [7]: 74.6 µM
TGI [9]: > 100 µM
TGI [10]: 38.5 µM
TGI [11]: 33.6 µM

O=S(=O)(NC(c1ccccc1)(c1cc2ccccc2[nH]1)c1cc2ccccc2n1S(=O)(=O)c1ccccc1)c1ccccc1 (configuration not stated)
TGI [1]: > 100 µM
TGI [2]: > 100 µM
TGI [12]: > 100 µM
TGI [4]: > 100 µM
TGI [5]: > 100 µM
TGI [7]: > 100 µM
TGI [8]: > 100 µM
TGI [10]: > 100 µM
TGI [11]: > 100 µM

O=C(COC(=O)c1ccccc1)c1ccc(Br)cc1
TGI [2]: 28 µM
TGI [3]: 24.8 µM
TGI [12]: 30.5 µM
TGI [4]: 15 µM
TGI [7]: > 100 µM
TGI [8]: 27.5 µM
TGI [9]: 29.4 µM
TGI [10]: 29.9 µM
TGI [11]: 27.3 µM

CSc1nc(-c2cc3c(c(SC)n2)CCC3)cc2c1CCC2
TGI [1]: > 100 µM
TGI [2]: > 100 µM
TGI [12]: > 100 µM
TGI [4]: > 100 µM
TGI [5]: > 100 µM
TGI [6]: > 100 µM
TGI [7]: > 100 µM
TGI [8]: > 100 µM
TGI [9]: > 100 µM
TGI [10]: > 100 µM
TGI [11]: > 100 µM

C/C(=C1/N=C(c2cc([N+](=O)[O-])ccc2Cl)N(C2=CC=C(Cl)CC2)C1=O)c1cc2ccccc2oc1=O
TGI [2]: > 100 µM
TGI [4]: > 100 µM
TGI [5]: > 100 µM
TGI [6]: > 100 µM
TGI [7]: > 100 µM
TGI [8]: > 100 µM
TGI [9]: > 100 µM
TGI [10]: > 100 µM
TGI [11]: > 100 µM

CCCCN(CCCC)c1ccc(N=Nc2ccc(S(=O)(=O)O)cc2)cc1
TGI [2]: > 100 µM
TGI [3]: 49.6 µM
TGI [12]: 64.7 µM
TGI [4]: 35.2 µM
TGI [7]: 44.9 µM
TGI [8]: 43.4 µM
TGI [9]: 85 µM
TGI [10]: 39.2 µM
TGI [11]: > 100 µM

C[C@@H]1CCN(C(=O)CC#N)C[C@@H]1N(C)c1ncnc2[nH]ccc12
GI50 [2]: 17.6 µM
TGI [2]: > 100 µM
GI50 [3]: > 100 µM
TGI [3]: > 100 µM
GI50 [5]: 20.9 µM
TGI [5]: > 100 µM
GI50 [6]: > 100 µM
TGI [6]: > 100 µM
GI50 [7]: > 100 µM
TGI [7]: > 100 µM
GI50 [8]: > 100 µM
TGI [8]: > 100 µM
GI50 [10]: 12.9 µM
TGI [10]: 84.5 µM
GI50 [11]: > 100 µM
TGI [11]: > 100 µM

Cc1ccc(NNc2cc(=O)[nH]c(=O)[nH]2)cc1Cl
TGI [1]: 28 µM
TGI [12]: 29.9 µM
TGI [4]: 58.3 µM
TGI [5]: > 100 µM
TGI [6]: 32.8 µM
TGI [8]: > 100 µM
TGI [9]: > 100 µM
TGI [10]: > 100 µM
TGI [11]: 30 µM

COc1ccc(/C=N/n2c(C)n[nH]c2=O)cc1
TGI [1]: > 100 µM
TGI [2]: > 100 µM
TGI [3]: > 100 µM
TGI [12]: > 100 µM
TGI [4]: > 100 µM
TGI [5]: > 100 µM
TGI [7]: > 100 µM
TGI [9]: > 100 µM
TGI [10]: > 100 µM
TGI [11]: > 100 µM

CCOC(=O)c1ccc(Nc2nc3ccc(C(F)(F)F)cc3nc2-c2ccccc2)cc1
TGI [1]: > 100 µM
TGI [2]: > 100 µM
TGI [3]: > 100 µM
TGI [4]: > 100 µM
TGI [5]: > 100 µM
TGI [6]: > 100 µM
TGI [7]: > 100 µM
TGI [8]: > 100 µM
TGI [9]: > 100 µM
TGI [10]: > 100 µM
TGI [11]: > 100 µM

Cn1c2ccccc2n2c3ccccc3c(=S)c(C#N)c12
TGI [1]: > 100 µM
TGI [2]: > 100 µM
TGI [3]: > 100 µM
TGI [4]: > 100 µM
TGI [5]: > 100 µM
TGI [6]: > 100 µM
TGI [7]: > 100 µM
TGI [8]: > 100 µM
TGI [10]: > 100 µM
TGI [11]: > 100 µM
